Results taken from PubChem BioAssay (NCI).
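Five concentrations, 48 hours, 96-well plates. Definition used: TGI = concentration required for complete inhibition of growth.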

Columns and labels:
Assay in all cases: inhibition of tumour cell growth, NCI panel, 48 h
SK-MEL-2 melanoma = test system: SK-MEL-2 melanoma
LOX IMVI melanoma = test system: LOX IMVI melanoma
NCI-H522 lung = test system: NCI-H522 lung
SW-620 colon = test system: SW-620 colon
MDA-MB-435 = test system: MDA-MB-435
HCC-2998 colon = test system: HCC-2998 colon
A498 renal = test system: A498 renal
HS 578T breast = test system: HS 578T breast
SF-295 CNS = test system: SF-295 CNS
DU-145 prostate = test system: DU-145 prostate
OVCAR-8 ovarian = test system: OVCAR-8 ovarian
HT29 colon = test system: HT29 colon
OVCAR-4 ovarian = test system: OVCAR-4 ovarian
RPMI-8226 leukemia = test system: RPMI-8226 leukemia
SK-MEL-5 melanoma = test system: SK-MEL-5 melanoma
TK-10 renal = test system: TK-10 renal
MDA-MB-231 breast = test system: MDA-MB-231 breast
MOLT-4 leukemia = test system: MOLT-4 leukemia
SNB-75 CNS = test system: SNB-75 CNS
M14 melanoma = test system: M14 melanoma
HCT-116 colon = test system: HCT-116 colon
786-0 renal = test system: 786-0 renal
CAKI-1 renal = test system: CAKI-1 renal
SNB-19 CNS = test system: SNB-19 CNS
U251 CNS = test system: U251 CNS
SF-539 CNS = test system: SF-539 CNS
MCF7 breast = test system: MCF7 breast
COLO 205 colon = test system: COLO 205 colon
NCI/ADR-RES ovarian = test system: NCI/ADR-RES ovarian
IGROV1 ovarian = test system: IGROV1 ovarian
NCI-H23 lung = test system: NCI-H23 lung
BT-549 breast = test system: BT-549 breast
SN12C renal = test system: SN12C renal
NCI-H226 lung = test system: NCI-H226 lung
MALME-3M melanoma = test system: MALME-3M melanoma
HCT-15 colon = test system: HCT-15 colon
HOP-62 NSCLC = test system: HOP-62 NSCLC
UACC-257 melanoma = test system: UACC-257 melanoma
SK-MEL-28 melanoma = test system: SK-MEL-28 melanoma
SF-268 CNS = test system: SF-268 CNS
A549 NSCLC = test system: A549 NSCLC
OVCAR-5 ovarian = test system: OVCAR-5 ovarian
OVCAR-3 ovarian = test system: OVCAR-3 ovarian
NCI-H460 lung = test system: NCI-H460 lung
EKVX NSCLC = test system: EKVX NSCLC
RXF 393 renal = test system: RXF 393 renal
ACHN renal = test system: ACHN renal
T-47D breast = test system: T-47D breast
MDA-N = test system: MDA-N
PC-3 prostate = test system: PC-3 prostate
HOP-92 NSCLC = test system: HOP-92 NSCLC
UO-31 renal = test system: UO-31 renal
KM12 colon = test system: KM12 colon
SK-OV-3 ovarian = test system: SK-OV-3 ovarian
CCRF-CEM leukemia = test system: CCRF-CEM leukemia
HL-60(TB) leukemia = test system: HL-60(TB) leukemia
UACC-62 melanoma = test system: UACC-62 melanoma
K-562 leukemia = test system: K-562 leukemia

Measured: TGI

COc1ccc2nc3cccc([N+](=O)[O-])c3c(NCCN(C)C)c2c1
0.314 µM: MCF7 breast
0.271 µM: OVCAR-4 ovarian
0.397 µM: EKVX NSCLC
0.384 µM: UACC-257 melanoma
0.213 µM: MALME-3M melanoma
0.0601 µM: DU-145 prostate
0.31 µM: SK-MEL-28 melanoma
0.546 µM: SF-268 CNS
0.449 µM: KM12 colon
0.6 µM: U251 CNS
0.115 µM: HCT-116 colon
0.746 µM: CAKI-1 renal
0.297 µM: SF-539 CNS
0.262 µM: MDA-N
0.518 µM: HS 578T breast
0.829 µM: SNB-19 CNS
0.192 µM: HOP-92 NSCLC
0.219 µM: SK-MEL-5 melanoma
0.268 µM: PC-3 prostate
0.456 µM: NCI-H226 lung
0.348 µM: 786-0 renal
0.184 µM: BT-549 breast
0.327 µM: SN12C renal
0.408 µM: T-47D breast
0.0487 µM: NCI-H522 lung
0.491 µM: MOLT-4 leukemia
0.279 µM: A549 NSCLC
0.373 µM: NCI/ADR-RES ovarian
0.335 µM: SNB-75 CNS
0.251 µM: OVCAR-8 ovarian
0.756 µM: SW-620 colon
0.347 µM: A498 renal
0.23 µM: RXF 393 renal
0.107 µM: COLO 205 colon
0.781 µM: SK-OV-3 ovarian
0.362 µM: NCI-H23 lung
0.272 µM: SK-MEL-2 melanoma
0.413 µM: UO-31 renal
1 µM: SF-295 CNS
0.218 µM: M14 melanoma
0.312 µM: OVCAR-3 ovarian
0.263 µM: HCT-15 colon
0.441 µM: HT29 colon
0.208 µM: MDA-MB-435
0.659 µM: TK-10 renal
0.39 µM: IGROV1 ovarian
0.188 µM: HCC-2998 colon
0.437 µM: OVCAR-5 ovarian
0.357 µM: MDA-MB-231 breast | ACHN renal
0.232 µM: LOX IMVI melanoma
0.393 µM: RPMI-8226 leukemia
0.323 µM: HOP-62 NSCLC
0.0672 µM: NCI-H460 lung

CC1=C(C(=O)NNC(=O)c2ccccc2)CC(C(=O)NNC(=O)c2ccccc2)=C(C)N1
not listed: SNB-75 CNS | MALME-3M melanoma
> 100 µM: all other assays above

CC1=CCCC(C)(O)C2CC(CCC3(C)OC3CC1)C(C)C(=O)O2 (stereo not given)
not listed: HOP-62 NSCLC | RXF 393 renal | HOP-92 NSCLC
> 100 µM: all other assays above
